Data taken from patent US20120107248A1, “IMAGING GASTROINTESTINAL VOLUMES AND MOTILITY” (MAYO FOUNDATION FOR MEDICAL EDUCATION AND RESEARCH, priority 2009, published 2012).

Experiments:
[1] = in vivo; cited from earlier work
gastric wall = test: Abdominal MRI studies in mice with automated segmentation (Example 5); type: in vivo
Procedure: Ten abdominal MRI studies in mice were performed under three conditions in sequential order: fasting pre-contrast, fasting post-contrast, and postprandial post-contrast (after feeding with 80 μL egg yolk). Five studies each were conducted with a commercially-available gadolinium contrast agent (gadopentetic acid, Magnevist™) and with Gd-DOTA-3COOH-S-Pantoprazole. Mice were administered 2.5 mg of Magnevist or Gd-DOTA-3COOH-S-Pantoprazole in a volume of 10 μL intravenously. […] In these images the gastric lumen is marked “s.” The images were analyzed by standard techniques (i.e., full-width-half-maximum method). Following administration of Magnevist, the uptake signal increased diffusely, as shown by the arrow. […] In the Gd-DOTA-3COOH-S-Pantoprazole study, the algorithm only identified the stomach boundary after contrast, i.e., fasting and postprandial images, but the conjugate was capable of discriminating the stomach wall from its contents and surrounding tissues. Comparison of gastric wall signal intensity over time after intravenous Magnevist and Gd-DOTA-3COOH-S-Pantoprazole is shown in FIG. 9. Data were sampled at 120 equidistant points around the gastric wall.

| splenic uptake / gastro-splenic boundary (gastric wall; 2.5 mg intravenously, FIG. 7) | Structure (SMILES) | blood clearance time [1] | gastric wall signal and automated segmentation of the gastric outline (gastric wall; 2.5 mg intravenously, full-width-half-maximum method, FIG. 6) | gastric wall signal intensity over time: difference between fasting post contrast and postprandial post contrast images (gastric wall; 120 equidistant points around the gastric wall, FIG. 9) | gastric wall thickness measurements (gastric wall; segmentation algorithm, FIG. 7 and FIG. 8) |
| --- | --- | --- | --- | --- | --- |
| – | O=C([O-])CN(CCN(CC(=O)[O-])CC(=O)O)CCN(CC(=O)[O-])CC(=O)O.[Gd+3] [Gd(DTPA), gadolinium diethylenetriaminepentaacetate] | approximately 2 minutes | – | – | – |
| marked splenic uptake | CNC[C@H](O)[C@@H](O)[C@H](O)[C@H](O)CO.CNC[C@H](O)[C@@H](O)[C@H](O)[C@H](O)CO.O=C([O-])CN(CCN(CC(=O)[O-])CC(=O)O)CCN(CC(=O)[O-])CC(=O)O.[Gd+3] [Magnevist, gadopentetic acid, reference compound] | – | could not accurately identify the gastric outline | higher difference | overestimates stomach wall thickness |
